Consider three compounds from publication PMC9499463, “Potent Chlorambucil-Platinum(IV) Prodrugs” (International Journal of Molecular Sciences, 2022).

Each structure is given as a SMILES string. Where “and” joins values, the source holds several entries; their conditions need not be identical. Identical values can stand only once.

One data set relates to A2780 ovarian. Description: MTT growth inhibition assay, 72 h. It counts as cell-based, human. A general note: Tetrazolium assays rely on reduction of a dye to a coloured formazan, in cell work by metabolically active cells.
The test system of another data set is panel of cell lines. Description: MTT growth inhibition assay, 72 h, over the cell line panel. The class given is cell-based, human. The settings on record: average over all cell lines tested; read-out: Average GI50 Values.
The nature of data set [1]: Stability in solvent systems by HPLC. The settings on record: room temperature. It counts as physicochemical. The protocol:
The stability of PCLB, 5CLB, and 56CLB was evaluated by HPLC. The complexes were tested in three solvent systems, 10 mM PBS (~7.4 pH), 0.9% NaCl and d.i.H2O/DMSO (50:50). This process was followed for 1 h at room temperature for each complex in each solvent system (Table 3 and Figure S32). However, it is noteworthy that when these complexes are left in solution for more extended periods, reduction to the corresponding platinum(II) species appears inevitable (Figure S33). This is likely influenced by the nature of the coordinated CLB ligand, which is highly susceptible to rapid hydrolysis due to its functional group.
The stability of PCLB, 5CLB, and 56CLB was monitored using an Agilent Technologies 1260 Infinity instrument equipped with a Phenomenex Onyx^TM Monolithic C18-reverse phase column (100 × 4.6 mm, 5 µm pore size). The mobile phase consisted of solvents, A (0.06% TFA in d.i.H2O) and B (0.06% TFA in CH3CN/d.i.H2O (90:10)). An injection volume of 5 µL was utilized and eluted with a 0–100% linear gradient over 15 min with a flow rate of 1 mL/min, at the set wavelengths of 214 and 254 nm. Each complex was dissolved separately in three solvent systems including, 10 mM phosphate-buffered saline (PBS) at ~7.4 pH, 0.9% sodium chloride (NaCl) or standard saline solution and d.i.H2O/DMSO (50:50). Each HPLC run per solvent system was followed for 1 h at room temperature.

Another data set concerns BE2-C neuroblastoma. The experiment in a line: MTT growth inhibition assay, 72 h. The class given is cell-based, human.
Another data set relates to Du145 prostate. Description: MTT growth inhibition assay, 72 h. As to conditions: for GI50: MTT, 72 h. It counts as cell-based, human.
Another data set concerns A431 skin. Description: MTT growth inhibition assay, 72 h. The class given is cell-based, human.
In another data set the test system is HT29 colon cells. Description: ROS detection assay (DCFH-DA fluorescence). It counts as cell-based, human. As to conditions: compounds at GI50 concentration, TBHP and NAC 20 μM. The protocol:
HT29 colon cells were stained by DCFH-DA and then treated with the compounds at each specific GI50 concentration. Upon ROS production, the DCFH-DA produced […], a fluorescent product. The measured fluorescence was, therefore, proportional to the produced ROS. […] 56CLB at 24 h reported 395 RFU, 437 RFU at 48 h, and 558 RFU at 72 h (Table 6, Figure 14 and Figure S42), respectively, showing a significant production of ROS in comparison to control cells. 5CLB at 24 h produced 337 RFU, 324 RFU at 48 h, and 376 RFU at 72 h (Table 6, Figure 14 and Figure S42), respectively.
To investigate for the presence of ROS in treated cells, DCFDA/H2DCFDA-cellular ROS Assay Kit (Abcam, Cambridge, MA, USA) was used, as described. A total of 25,000 cells/mL of HT29 cells in DMEM were seeded in 96-well plates. Cells were washed with 1X kit buffer, then stained with 25 μM 2’,7’-dichlorofluorescein diacetate (DCFH-DA) and incubated for 45 min. DCFH-DA was then removed, and cells were then re-washed with 1X kit buffer, after which phenol red free media was added. Cells were then treated with GI50 drug concentration for each complex. The plates were directly scanned to measure fluorescence (relative fluorescence units (RFU)) at different time points using the Glo-Max®-Multimode microplate reader (Promega Corporation, Alexandra, VIC, Australia) at an excitation/emission of 485/535 nm. To generate the positive control (20 μM tert-butyl hydroperoxide (TBHP)), cells were washed with 1X kit buffer, and stained with DCFDA (25 μM) for 45 min. DCFDA was then removed and TBHP was added in phenol red free media. The plate was scanned to measure the RFU at different time points as mentioned above. The same method applies for the negative control treated with 20 μM N-acetylcysteine (NAC).

On to `Cc1c(C)c2cccnc2c2ncccc12.N[C@H]1CCCC[C@@H]1N.O=C([O-])CCCc1ccc(N(CCCl)CCCl)cc1.O=[N+]([O-])[O-].O=[N+]([O-])[O-].[OH-].[Pt+4]` [56CLB, [Pt^IV(5,6-dimethyl-1,10-phenanthroline)(S,S-DACH)(CLB)(OH)](NO3)2], for which the concentration for 50% growth inhibition (GI50) (usually the concentration that inhibits growth by half) in the data set with A2780 ovarian is 21 ± 0.0047 nM; in the data set with panel of cell lines, 40 nM and 44 nM; in the data set with BE2-C neuroblastoma, 140 ± 0.012 nM; in the data set on Du145 prostate, 3 nM and 2.7 nM; in the data set with A431 skin, 34 ± 0.0037 nM. Further, the “HPLC Peak Areas at 254 nm” value in data set [1] (0.9% NaCl, 30 min) is on record as 84.6%; in data set [1] (0.9% NaCl, 1 h) it was 82.5%; in data set [1] (PBS (~7.4 pH), 30 min), 78.2%; in data set [1] (PBS (~7.4 pH), 1 h) it was 75.2%; in data set [1] (d.i.H2O/DMSO (50:50), 30 min) it was 85.0%; in data set [1] (d.i.H2O/DMSO (50:50), 1 h), 84.3%. Moreover, the “fold increase in potency compared to CLB” value in the data set on Du145 prostate (Du145 prostate cell line) is 10,000 fold. In the data set with Du145 prostate (Du145 prostate cell line), the “fold more potent than cisplatin” value is “at least 440 fold”. The “ROS Production” value with HT29 colon cells (24 h) is 395 RFU and 395 ± 3 RFU; with HT29 colon cells (48 h), 437 RFU and 437 ± 2 RFU; in the data set on HT29 colon cells (72 h), 558 RFU and 558 ± 2 RFU.

For the compound `Cc1cc2cccnc2c2ncccc12.N[C@H]1CCCC[C@@H]1N.O=C([O-])CCCc1ccc(N(CCCl)CCCl)cc1.O=[N+]([O-])[O-].O=[N+]([O-])[O-].[OH-].[Pt+4]` [5CLB, [Pt^IV(5-methyl-1,10-phenanthroline)(S,S-DACH)(CLB)(OH)](NO3)2], the GI50 in the data set on A2780 ovarian stood at 46 ± 0.015 nM; with panel of cell lines, 94 ± 0.01 nM; with BE2-C neuroblastoma it was 230 ± 0.039 nM; in the data set with Du145 prostate, 14 ± 0.004 nM; in the data set with A431 skin it was 90 ± 0.015 nM. In addition, the “HPLC Peak Areas at 254 nm” value in data set [1] (0.9% NaCl, 30 min) was 73.9%; in data set [1] (0.9% NaCl, 1 h) it was 72.4%; in data set [1] (PBS (~7.4 pH), 30 min) it was 68.8%; in data set [1] (PBS (~7.4 pH), 1 h), 67.3%; in data set [1] (d.i.H2O/DMSO (50:50), 30 min) it was 76.5%; in data set [1] (d.i.H2O/DMSO (50:50), 1 h), 75.8%. Besides, the “ROS Production” value with HT29 colon cells (24 h) is 337 RFU and 337 ± 8 RFU; with HT29 colon cells (48 h) it was 324 RFU and 324 ± 5 RFU; in the data set on HT29 colon cells (72 h), 376 RFU and 376 ± 1 RFU.

As for `O=C(CCCc1ccc(N(CCCl)CCCl)cc1)[O][Pt-2]12([OH])([NH2+][C@H]3CCCC[C@@H]3[NH2+]1)[n+]1cccc3ccc4ccc[n+]2c4c31.O=[N+]([O-])[O-].O=[N+]([O-])[O-]` [PCLB, [Pt^IV(1,10-phenanthroline)(S,S-DACH)(CLB)(OH)](NO3)2], the GI50 came out at 300 ± 0.048 nM with A2780 ovarian; 423 ± 0.07 nM in the data set with panel of cell lines; 440 ± 0.03 nM with BE2-C neuroblastoma; 210 ± 0.12 nM with Du145 prostate; 510 ± 0.1 nM in the data set with A431 skin. For the same compound, the “HPLC Peak Areas at 254 nm” value in data set [1] (0.9% NaCl, 30 min) is reported as 89.4%; in data set [1] (0.9% NaCl, 1 h), 87.5%; in data set [1] (PBS (~7.4 pH), 30 min), 85.0%; in data set [1] (PBS (~7.4 pH), 1 h), 83.1%; in data set [1] (d.i.H2O/DMSO (50:50), 30 min), 93.2%; in data set [1] (d.i.H2O/DMSO (50:50), 1 h) it was 92.4%. In addition, the “ROS Production” value is 190 RFU and 190 ± 2 RFU in the data set with HT29 colon cells (24 h); 244 RFU and 244 ± 7 RFU in the data set on HT29 colon cells (48 h); 285 RFU and 285 ± 3 RFU with HT29 colon cells (72 h).
